The text below walks through data of ChEMBL document CHEMBL1134303, “Systematic structure-based design and stereoselective synthesis of novel multisubstituted cyclopentane derivatives with potent antiinfluenza activity” (J Med Chem, 2001).

The structures appear in SMILES notation.

For the assay, the target named is Neuraminidase (Influenza A virus (A/Puerto Rico/8/1934(H1N1)), UniProt P03468). In words: Inhibitory activity against influenza A neuraminidase.
Neuraminidase (Influenza A virus (A/Puerto Rico/8/1934(H1N1)), UniProt P03468), sequence (P03468 whole entry): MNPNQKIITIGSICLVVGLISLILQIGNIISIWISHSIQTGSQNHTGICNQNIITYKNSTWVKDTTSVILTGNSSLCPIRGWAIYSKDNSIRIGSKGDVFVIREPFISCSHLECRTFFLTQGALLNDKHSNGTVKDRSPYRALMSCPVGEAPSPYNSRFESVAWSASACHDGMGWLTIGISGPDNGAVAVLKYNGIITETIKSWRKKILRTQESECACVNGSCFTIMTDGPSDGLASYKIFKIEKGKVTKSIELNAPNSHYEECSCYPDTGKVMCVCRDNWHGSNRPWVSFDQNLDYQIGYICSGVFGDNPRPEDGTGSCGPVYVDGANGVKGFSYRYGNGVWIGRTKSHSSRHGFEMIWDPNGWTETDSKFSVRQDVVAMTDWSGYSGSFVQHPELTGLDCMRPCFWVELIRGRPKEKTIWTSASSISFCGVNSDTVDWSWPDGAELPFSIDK

For `CCC(CC)[C@H](NC(C)=O)[C@@H]1C[C@@H](C(=O)O)C[C@H]1N=C(N)N`, the IC50 (usually the concentration that inhibits the measured activity by half) is below 1 nM.
`CCC(CC)[C@H](NC(C)=O)[C@@H]1[C@H](O)[C@@H](C(=O)O)C[C@H]1NC(=N)N` [PERAMIVIR ANHYDROUS] registered an IC50 below 1 nM.
